Source: patent US20160060260A1, “BROMODOMAIN INHIBITORS FOR TREATING DISEASE” (Board of Regents, The University of Texas System, priority 2014, published 2016)

biological target: T1, Recombinant human His-tagged Trim24-PHD-bromodomain (Homo sapiens, UniProt O15164); test: Trim24 AlphaScreen Assay; format: binding; settings: 5 nM Trim24 protein, 15 nM biotinylated H3K23ac (1-33aa) peptide
T1 construct: Recombinant human His-tagged Trim24-PHD-bromodomain (produced in-house); made in house
T1 sequence (O15164 824-1006 limits assumed): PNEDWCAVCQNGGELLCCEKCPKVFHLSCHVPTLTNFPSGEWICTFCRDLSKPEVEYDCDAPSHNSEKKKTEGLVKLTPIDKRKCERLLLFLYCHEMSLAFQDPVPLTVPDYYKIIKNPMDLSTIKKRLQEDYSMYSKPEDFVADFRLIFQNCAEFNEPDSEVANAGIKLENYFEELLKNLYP
How it was run: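 His-tagged Trim24-PHD-bromodomain, biotinylated H3K23ac (1-33aa) peptide and compound incubated 1 h at room temperature in 50 mM Hepes pH 7.5, 100 mM NaCl, 0.12 mM Triton X-100.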

| Structure (SMILES) | IC50 |
| --- | --- |
| Cn1c(=O)n(C)c2cc(Oc3cccc(OCc4ccccc4)c3)c(NS(=O)(=O)c3cn[nH]c3)cc21 [Example 51, N-(6-(3-(benzyloxy)phenoxy)-1,3-dimethyl-2-oxo-2,3-dihydro-1H-benzo[d]imidazol-5-yl)-1H-pyrazole-4-sulfonamide] | 100 to 1000 nM |
| CCCOc1cc(OCC2CC2)cc(Oc2cc3c(cc2NS(=O)(=O)c2cccnc2)n(C)c(=O)n3C)c1 [Example 118, N-(6-(3-(cyclopropylmethoxy)-5-propoxyphenoxy)-1,3-dimethyl-2-oxo-2,3-dihydro-1H-benzo[d]imidazol-5-yl)pyridine-3-sulfonamide] | 10 to 100 nM |
| CCCOc1cc(OCCCCCCO)cc(Oc2cc3c(cc2NS(=O)(=O)c2cccnc2)n(C)c(=O)n3C)c1 [Example 180, N-(6-(3-((6-hydroxyhexyl)oxy)-5-propoxyphenoxy)-1,3-dimethyl-2-oxo-2,3-dihydro-1H-benzo[d]imidazol-5-yl)pyridine-3-sulfonamide] | 10 to 100 nM |
| CCCOc1cc(OCCCOC)cc(Oc2cc3c(cc2NS(=O)(=O)c2cnn(C)c2C)n(C)c(=O)n3C)c1 [Example 154] | 10 to 100 nM |
| CCCOc1cc(OCCCCNC)cc(Oc2cc3c(cc2NS(=O)(=O)c2ccc(OC)c(OC)c2)n(C)c(=O)n3C)c1 [Example 249, N-(1,3-dimethyl-6-{3-[4-(methylamino)butoxy]-5-propoxyphenoxy}-2-oxo-2,3-dihydro-1H-1,3-benzodiazol-5-yl)-3,4-dimethoxybenzene-1-sulfonamide] | 10 to 100 nM |
| Cn1cc(S(=O)(=O)Nc2cc3c(cc2Oc2cccc(OC(F)(F)F)c2)n(C)c(=O)n3C)cn1 [Example 73, N-(1,3-dimethyl-2-oxo-6-(3-(trifluoromethoxy)phenoxy)-2,3-dihydro-1H-benzo[d]imidazol-5-yl)-1-methyl-1H-pyrazole-4-sulfonamide] | > 1000 nM |
| COc1ccc(S(=O)(=O)Nc2cc3c(cc2Oc2cccc(OCc4ccccc4)c2)n(C)c(=O)n3C)cc1 [Example 17, N-(6-(3-(benzyloxy)phenoxy)-1,3-dimethyl-2-oxo-2,3-dihydro-1H-benzo[d]imidazol-5-yl)-4-methoxybenzenesulfonamide] | 100 to 1000 nM |
| CCCOc1cc(C#N)cc(Oc2cc3c(cc2NS(=O)(=O)c2ccc(OC)c(OC)c2)n(C)c(=O)n3C)c1 [Example 109, N-(6-(3-cyano-5-propoxyphenoxy)-1,3-dimethyl-2-oxo-2,3-dihydro-1H-benzo[d]imidazol-5-yl)-3,4-dimethoxybenzenesulfonamide] | 10 to 100 nM |
| Cn1cnc(S(=O)(=O)Nc2cc3c(cc2Oc2cccc(OCCCC(F)(F)F)c2)n(C)c(=O)n3C)c1 [Example 84, N-(1,3-dimethyl-2-oxo-6-(3-(4,4,4-trifluorobutoxy)phenoxy)-2,3-dihydro-1H-benzo[d]imidazol-5-yl)-1-methyl-1H-imidazole-4-sulfonamide] | 100 to 1000 nM |
| Cc1c(S(=O)(=O)Nc2cc3c(cc2Oc2cccc(OCc4ccccc4)c2)n(C)c(=O)n3C)cnn1C [Example 41, N-(6-(3-(benzyloxy)phenoxy)-1,3-dimethyl-2-oxo-2,3-dihydro-1H-benzo[d]imidazol-5-yl)-1,5-dimethyl-1H-pyrazole-4-sulfonamide] | 100 to 1000 nM |
| CN(C)CCCCOc1cccc(Oc2cc3c(cc2NS(=O)(=O)c2cn(C)cn2)n(C)c(=O)n3C)c1 [Example 9, N-(6-(3-(4-(dimethylamino)butoxy)phenoxy)-1,3-dimethyl-2-oxo-2,3-dihydro-1H-benzo[d]imidazol-5-yl)-1-methyl-1H-imidazole-4-sulfonamide 2,2,2-trifluoroacetate] | > 1000 nM |
| CCCCOc1cccc(Oc2cc3c(cc2NS(=O)(=O)c2cn(C)c(C)n2)n(C)c(=O)n3C)c1 [Example 57, N-(6-(3-butoxyphenoxy)-1,3-dimethyl-2-oxo-2,3-dihydro-1H-benzo[d]imidazol-5-yl)-1,2-dimethyl-1H-imidazole-4-sulfonamide] | 100 to 1000 nM |
| Cn1c(=O)n(C)c2cc(Oc3cccc(OCc4ccccc4)c3)c(NS(=O)(=O)c3ccc4c(c3)OCO4)cc21 [Example 36, N-(6-(3-(benzyloxy)phenoxy)-1,3-dimethyl-2-oxo-2,3-dihydro-1H-benzo[d]imidazol-5-yl)benzo[d][1,3]dioxole-5-sulfonamide] | 100 to 1000 nM |
| CCCOc1cc(OCCCCN2CCCC2)cc(Oc2cc3c(cc2NS(=O)(=O)c2ccc(OC)c(OC)c2)n(C)c(=O)n3C)c1 [Example 250, N-(1,3-dimethyl-2-oxo-6-{3-propoxy-5-[4-(pyrrolidin-1-yl)butoxy]phenoxy}-2,3-dihydro-1H-1,3-benzodiazol-5-yl)-3,4-dimethoxybenzene-1-sulfonamide] | 10 to 100 nM |
| COCCCOc1cc(C#N)cc(Oc2cc3c(cc2NS(=O)(=O)c2ccn(C)n2)n(C)c(=O)n3C)c1 [Example 121, N-(6-(3-cyano-5-(3-methoxypropoxy)phenoxy)-1,3-dimethyl-2-oxo-2,3-dihydro-1H-benzo[d]imidazol-5-yl)-1-methyl-1H-pyrazole-3-sulfonamide] | 100 to 1000 nM |
| CCCOc1cc(OCCCCCCN)cc(Oc2cc3c(cc2NS(=O)(=O)c2cn(C)c(C)n2)n(C)c(=O)n3C)c1 [Example 182, N-(6-(3-((6-aminohexyl)oxy)-5-propoxyphenoxy)-1,3-dimethyl-2-oxo-2,3-dihydro-1H-benzo[d]imidazol-5-yl)-1,2-dimethyl-1H-imidazole-4-sulfonamide] | 10 to 100 nM |
| CCCOc1cc(OCCCCN2CCC(O)C2)cc(Oc2cc3c(cc2NS(=O)(=O)c2ccc(OC)c(OC)c2)n(C)c(=O)n3C)c1 (centres unmarked) [Example 247, N-(6-{3-[4-(3-hydroxypyrrolidin-1-yl)butoxy]-5-propoxyphenoxy}-1,3-dimethyl-2-oxo-2,3-dihydro-1H-1,3-benzodiazol-5-yl)-3,4-dimethoxybenzene-1-sulfonamide] | 10 to 100 nM |

Continued, values first:

| IC50 | Structure (SMILES) |
| --- | --- |
| > 1000 nM | CCCOc1cccc(Oc2cc3c(cc2NS(=O)(=O)c2cn(C)cn2)n(C)c(=O)n3C)c1Cl [Example 111, N-(6-(2-chloro-3-propoxyphenoxy)-1,3-dimethyl-2-oxo-2,3-dihydro-1H-benzo[d]imidazol-5-yl)-1-methyl-1H-imidazole-4-sulfonamide] |
| 10 to 100 nM | CCCOc1cccc(Oc2cc3c(cc2NS(=O)(=O)c2c[nH]cn2)n(C)c(=O)n3C)c1 [Example 86, N-(1,3-dimethyl-2-oxo-6-(3-propoxyphenoxy)-2,3-dihydro-1H-benzo[d]imidazol-5-yl)-1H-imidazole-4-sulfonamide] |
| 10 to 100 nM | CCCOc1cc(OCCCOC)cc(Oc2cc3c(cc2NS(=O)(=O)c2ccccn2)n(C)c(=O)n3C)c1 [Example 158, N-(6-(3-(3-methoxypropoxy)-5-propoxyphenoxy)-1,3-dimethyl-2-oxo-2,3-dihydro-1H-benzo[d]imidazol-5-yl)pyridine-2-sulfonamide] |
| 100 to 1000 nM | COC(C)(CO)COc1cccc(Oc2cc3c(cc2NS(=O)(=O)c2cn(C)cn2)n(C)c(=O)n3C)c1 (centres unmarked) [Example 232, N-{6-[3-(3-hydroxy-2-methoxy-2-methylpropoxy)phenoxy]-1,3-dimethyl-2-oxo-2,3-dihydro-1H-1,3-benzodiazol-5-yl}-1-methyl-1H-imidazole-4-sulfonamide] |
| 100 to 1000 nM | CCCOc1cccc(Oc2cc3c(cc2NS(=O)(=O)C2CC2)n(C)c(=O)n3C)c1 [Example 82, N-(1,3-dimethyl-2-oxo-6-(3-propoxyphenoxy)-2,3-dihydro-1H-benzo[d]imidazol-5-yl)cyclopropanesulfonamide] |
| 100 to 1000 nM | C=CCOc1cccc(S(=O)(=O)Nc2cc3c(cc2Oc2cccc(OCCC)c2)n(C)c(=O)n3C)c1 [Example 106, 3-(allyloxy)-N-(1,3-dimethyl-2-oxo-6-(3-propoxyphenoxy)-2,.3-dihydro-1H-benzo[d]imidazol-5-yl)benzenesulfonamide] |
| 10 to 100 nM | CCCOc1cc(OCCCO)cc(Oc2cc3c(cc2NS(=O)(=O)c2cn(C)c(C)n2)n(C)c(=O)n3C)c1 [Example 98, N-(6-(3-(3-hydroxypropoxy)-5-propoxyphenoxy)-1,3-dimethyl-2-oxo-2,3-dihydro-1H-benzo[d]imidazol-5-yl)-1,2-dimethyl-1H-imidazole-4-sulfonamide] |
| 100 to 1000 nM | CCn1cnc(S(=O)(=O)Nc2cc3c(cc2Oc2cccc(OCc4ccccc4)c2)n(C)c(=O)n3C)c1 [Example 50, N-(6-(3-(benzyloxy)phenoxy)-1,3-dimethyl-2-oxo-2,3-dihydro-1H-benzo[d]imidazol-5-yl)-1-ethyl-1H-imidazole-4-sulfonamide] |
| 100 to 1000 nM | Cn1cnc(S(=O)(=O)Nc2cc3c(cc2Oc2cccc(OCC4(C)CO4)c2)n(C)c(=O)n3C)c1 (centres unmarked) [Example 236, N-(1,3-dimethyl-6-(3-((2-methyloxiran-2-yl)methoxy)phenoxy)-2-oxo-2,3-dihydro-1H-benzo[d]imidazol-5-yl)-1-methyl-1H-imidazole-4-sulfonamide] |
| 100 to 1000 nM | Cc1nc(S(=O)(=O)Nc2cc3c(cc2Oc2cccc(OC(C)C)c2)n(C)c(=O)n3C)cn1C [Example 54, N-(6-(3-isopropoxyphenoxy)-1,3-dimethyl-2-oxo-2,3-dihydro-1H-benzo[d]imidazol-5-yl)-1,2-dimethyl-1H-imidazole-4-sulfonamide] |
| 10 to 100 nM | Cn1cnc(S(=O)(=O)Nc2cc3c(cc2Oc2cccc(OCC4CC4)c2)n(C)c(=O)n3C)c1 [Example 100, N-(6-(3-(cyclopropylmethoxy)phenoxy)-1,3-dimethyl-2-oxo-2,3-dihydro-1H-benzo[d]imidazol-5-yl)-1-methyl-1H-imidazole-4-sulfonamide] |
| 100 to 1000 nM | CCCOc1cccc(Oc2cc3c(cc2NS(=O)(=O)c2cc(C)nn2C)n(C)c(=O)n3C)c1 [Example 93, N-(1,3-dimethyl-2-oxo-6-(3-propoxyphenoxy)-2,3-dihydro-1H-benzo[d]imidazol-5-yl)-1,3-dimethyl-1H-pyrazole-5-sulfonamide] |
